Reference: patent US10751373B2, “PD-L1 expressing hematopoietic stem cells and uses” (The Children's Medical Center Corporation, priority 2015, dated 2020)
Read-outs that look alike come from different tables or passages of the source.

How the values were obtained:
CD34^+ cells [1] = system: CD34^+ cells
Source text: To assess whether mobilization alters expression of PD-L1 on HSCs we studied the immune phenotype of HSCs before and after mobilization with anti-CXCR4 in 5 healthy subjects and 8 individuals with T1D.
Blood samples were obtained from new onset diabetic individuals (New-onset T1D), long-standing diabetic individuals (T1D) and healthy individuals (CTRL) in accordance with The San Raffaele Scientific Research Institute under an Institutional Review Board committee approval. Peripheral blood mononuclear cells (PBMC) fractions were isolated by Ficoll density gradient centrifugation for cell culturing experiments. Additional blood samples were obtained from T1D subjects and CTRL at baseline before treatment and 6 hours after treatment with CXCR4-antagonist (Mozobil; Sanofi) at the dose of 0.24 mg/kg body weight in accordance with the Institution Review Board Committee of Padova (2996P) and was performed in accordance with the Declaration of Helsinki (Clinical trial registered on clinicaltrials.gov (NCT02056210)). Patients with Type 1 Diabetes aged 18-65 years were recruited among those referred to the diabetes outpatient clinic of the University Hospital of Padova. Individuals without diabetes aged 18-65 years were recruited from those referred to the same outpatient clinic for screening of other metabolic diseases. All provided written informed consent. […] Women with childbearing potential could participate in the study if on oral contraception, and a negative pregnancy test was required before study entry. […] All medications for the treatment of diabetes and for other medical conditions were allowed during the study.
To assess PD-L1, PD-L2 and PD-1 expression on human HSCs, fresh blood collected from healthy individuals, T1D and new-onset T1D individuals was stained with PE-Cy5.5 anti-human CD34, PE anti-human PD-L1 or PD-L2 or PD-1 (BD Biosciences). […]

[2] = system: Lin^−c-Kit^+Sca-1^+ cells
Procedure: (§1) We evaluated the characteristics of CXCR4 antagonist-mobilized HSCs by FACS analysis. Lin^−c-Kit^+Sca-1^+ cells were sorted from islet-transplanted or naïve CXCR4 antagonist-treated mice after 7 and 14 days of treatment. […] To evaluate the immunoregulatory role of PD-L1 in murine HSCs, we investigated the effect of mobilized HSCs from WT and PD-L1 KO mice on the alloimmune response in vitro. A standard MLR assay was performed in which HSCs (from WT B6 or PD-L1 KO mice) were syngeneic to responder cells (CD4^+ cells from B6) but allogeneic to bone marrow-derived DCs (from BALB/c). […] The percentage of peripheral PD-L1^+ KLS in 10-week-old NOD and B6 mice was evaluated by FACS. […] We performed a pilot study to assess the feasibility of generation of PD-L1^+ HSCs in vitro by pharmacologic approach. KLS cells were isolated from splenocytes of B6 and NOD mice by magnetic beads and cultured with standard stem cell medium plus PGE2 (2 μl, 10 μM).

CD34^+ cells [3] = assay: Ex vivo culture of human CD34+ cells with PGE2, PD-L1 expression by FACS; assay type: cell-based
Procedure: CD34^+ cells were isolated from patients (20 ml of blood) using magnetic beads and ˜1×10^6 cells were plated in a U-bottom 96-well plate with 200 μl of the indicated medium. STFIA medium was defined as serum-free medium supplemented with 10 μg/ml heparin, 10 ng/ml human SCF, 20 ng/ml human TPO, 10 ng/ml human FGF-1, 100 ng/ml IGFBP2, and 500 ng/ml Angptl3. PGE2 was added the culture at 0 h, 24 h, 72 h and 6 days. An aliquot of 2 μl of diluted PGE2 at a concentration of 10 μM was added to the 200 μl of each well in the 96-well plate. The approximate final concentration of PGE2 in each well is 0.1 μM. Therefore, the cells are exposed to ˜0.1 μM of PGE2. The periodic addition of PGE2 at 24 h, 72 h and 6 days serves to maintain the PGE2 in the culture media. Cells were cultured for 7 days at 37° C. in 5% CO2 and the normal level of O2.
Alternatively, cells are cultured in the same conditions for 48 h in the absence of PGE2, after which and PGE2 is added and then later at 24 h after the initial additional. PGE2 is added to the same approximate final concentration of PGE2 of 0.1 μM. We typically observed a ˜10-fold increase of CD34^+PD-L1^+ of cells after 8 days of culture when compared with a cell culture with the same medium cultured for the same time in the same conditions with cells obtained from the same subjects but without addition of PGE2.
Human – human HSCs were cultured using StemSpan supplemented with human stem cell growth factors as previously reported (22). Briefly, CD34^+ cells were plated at 5×10^5 cells/ml in supplemented StemSpan on a 96-well plate, at 200 μl/well for 7 days. HSCs were pulsed with PGE2 as described in murine experiments. PD-L1^+ HSCs were quantified by FACS analysis at different timepoints and at the end of the procedure.

KLS cells = assay: In vitro culture of murine KLS cells with PGE2, PD-L1+ HSCs by FACS; assay type: cell-based; conditions: KLS of B6 and NOD mice; PGE2 (2 μl, 10 μM); after 8 days
Procedure: as §1

CD34+ cells = assay: HSC mobilization with hrG-CSF (trial NCT01102699); assay type: in vivo, human; conditions: 5 μg/kg
[4] = after 7 and 14 days of treatment

c1cc(CN2CCCNCCNCCCNCC2)ccc1CN1CCCNCCNCCCNCC1 [CXCR4 antagonist, plerixafor]
percentage of CD34^+ PD-L1^+ cells after mobilization (CD34^+ cells [1]; 5 controls and 8 T1D individuals): decrease
PD-L1 expression on CD34^+ cells after mobilization (CD34^+ cells [1]; T1D individuals (n=8), before 1.5±0.8): 4.7±1.5
PD-L1 expression on CD34^+ cells after mobilization (CD34^+ cells [1]; healthy subjects (n=5), before 0.6±0.2): 6.2±0.6
PD-L1^+ HSCs in bone marrow ([2]; B6 islet-transplanted mice, 6 h after initiation of treatment): did not increase
CXCR4 expressed by extracted HSCs [2, 4]: 38.4±4.2%
PD-L1 expressed by mobilized HSCs [2, 4]: 58.0±7.1%

CCCCC[C@H](O)/C=C/[C@H]1[C@H](O)CC(=O)[C@@H]1C/C=C\CCCC(=O)O [PGE2, prostaglandin E2]
increase in the percentage of PD-L1^+ HSCs (CD34^+ cells [3]; CD34+ cells of T1D individuals (n=10), after 7 days): ~8 times fold
increased expression of PD-L1 as compared to baseline (CD34^+ cells [3]; PGE2 culture protocol): at least 5 fold
increase of CD34^+PD-L1^+ of cells (CD34^+ cells [3]; PGE2 ~0.1 μM, after 8 days of culture vs same culture without PGE2): ~10 fold
increase in the PD-L1^+ HSCs (KLS cells): ~30 % fold

B1: hrG-CSF: granulocyte colony stimulating factor (protein, UniProt P09919 31-207, looked up)
Granulocyte …: TPLGPASSLPQSFLLKCLEQVRKIQGDGAALQEKLVSECATYKLCHPEELVLLGHSLGIPWAPLSSCPSQALQLAGCLSQLHSGLFLYQGLLQALEGISPELGPTLDTLQLDVADFATTIWQQMEELGMAPALQPTQGAMPAFASAFQRRAGGVLVASHLQSFLEVSYRVLRHLAQP
CD34+ cell mobilization (CD34+ cells; T1D individuals): impaired mobilization
CD34+ cell mobilization (CD34+ cells; healthy controls): significantly increased
